The values below come from article PMC10178785 (ACS Chemical Biology, 2023).

Test [1] deals with T1, MacroD1 (Homo sapiens, UniProt Q9BQ69). The note with it: cited from earlier work.
For test [2], the target named is T2, VEEV Macro (Venezuelan equine encephalitis virus, UniProt P27282). Briefly: biochemical. The format is binding.
Test [3] has as its target T1, MacroD1. In words: biochemical. The format is binding.
Test [4] has as its target T3, SARS-CoV-2 Macro1 (Severe acute respiratory syndrome coronavirus 2, UniProt P0DTD1). Briefly: biochemical. Format: binding.
For test [5], the target named is T4, human MacroD2 (Homo sapiens, UniProt A1Z1Q3). Briefly: biochemical. Format: binding.
T4 sequence (A1Z1Q3 59-240 limits assumed): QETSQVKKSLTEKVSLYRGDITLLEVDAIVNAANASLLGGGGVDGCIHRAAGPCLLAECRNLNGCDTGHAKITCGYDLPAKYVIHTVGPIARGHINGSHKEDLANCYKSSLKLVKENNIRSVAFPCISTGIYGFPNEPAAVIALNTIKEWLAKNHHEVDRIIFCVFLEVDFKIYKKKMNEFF
The target in the next test is PARP9 Macro2 (Homo sapiens, UniProt Q8IXQ6). Briefly: biochemical. The format is binding.
Test [6] concerns the target T5, CHIKV Macro (Chikungunya virus, UniProt Q8JUX6). In words: biochemical. Format: binding.
Test [7] addresses T3, SARS-CoV-2 Macro1. The format is binding.
The target of test [8] is T1, MacroD1. Format: binding.
Test [9] concerns the target T5, CHIKV Macro. Format: binding.
Test [10] deals with T2, VEEV Macro. Format: binding.
Test [11] addresses T4, human MacroD2. The format is binding.
The target in another test is SARS Macro1 (Severe acute respiratory syndrome coronavirus 2, UniProt P0DTD1). Format: biochemical, SARS-CoV-2.
For test [12], the target named is T1, MacroD1. Format: biochemical.

SMILES strings stand for the structures. Where two headings read alike, the source gives them in different places.

As a reminder, the Kd is the equilibrium constant for the complex coming apart. By IC50 is commonly meant the concentration needed to halve the response being measured.

T2 sequence (P27282 1330-1489 limits assumed): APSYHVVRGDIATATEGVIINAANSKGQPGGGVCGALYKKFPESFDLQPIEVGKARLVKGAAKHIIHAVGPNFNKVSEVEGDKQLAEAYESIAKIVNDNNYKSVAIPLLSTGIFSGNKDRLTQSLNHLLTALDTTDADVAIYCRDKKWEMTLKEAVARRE
T5 sequence (Q8JUX6 1334-1493 limits assumed): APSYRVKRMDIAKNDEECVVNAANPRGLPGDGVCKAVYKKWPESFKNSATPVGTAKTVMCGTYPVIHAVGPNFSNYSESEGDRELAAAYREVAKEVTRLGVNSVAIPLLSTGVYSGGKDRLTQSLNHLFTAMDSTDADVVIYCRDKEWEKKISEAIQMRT
T1 sequence (Q9BQ69 141-322 limits assumed): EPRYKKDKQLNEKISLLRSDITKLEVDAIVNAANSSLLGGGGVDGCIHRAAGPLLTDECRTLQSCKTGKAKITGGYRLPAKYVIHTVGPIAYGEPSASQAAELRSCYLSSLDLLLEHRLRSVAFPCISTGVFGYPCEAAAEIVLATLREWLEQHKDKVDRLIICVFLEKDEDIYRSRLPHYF

Turning to `Nc1ncnc2c1ncn2[C@@H]1O[C@H](COP(=O)(O)OP(=O)(O)OC[C@H]2OC(O)[C@H](O)[C@@H]2O)[C@@H](O)[C@H]1O` (stereo partly drawn) [ADPr, adenine diphosphate ribose], at MacroD1 [1], the Kd was 720 nM. Also, the 50% inhibitory concentration (IC50) on VEEV Macro [2] (read-out: IC50 VEEV Macro) amounted to 18.3 ± 2.8 µM; on MacroD1 [3] (read-out: IC50 MacroD1), 1420 ± 220 nM.
Take `[N-]=[N+]=NC1OC(COP(=O)(O)OP(=O)(O)OCC2OC(n3cnc4c(N)ncnc43)C(O)C2O)C(O)C1O` (stereo not drawn) [ADPr-N3]: on SARS-CoV-2 Macro1 [4], half-maximal inhibition (IC50) required 7230 ± 940 nM and the “IC50 Fold Decrease Relative to ADPr: SARS Macro1” value was about 2 fold.
`N#C[C@@]1(c2ccc3c(N)ncnn23)O[C@H](CO)[C@@H](O)[C@H]1O` [GS-441524]: the IC50 is over 100000 nM against human MacroD2 [5]; over 100 µM on PARP9 Macro2; over 100 µM against CHIKV Macro [6]; over 100 µM against VEEV Macro [2]; over 100000 nM against MacroD1 [3].
Take `CN(C)c1ccc2c(c1)Oc1cc(N(C)C)ccc1C21OC(=O)c2cc(C(=O)NCCCCCCNC(=O)CCc3cn([C@H]4O[C@H](COP(=O)(O)OP(=O)(O)OC[C@H]5O[C@@H](n6cnc7c(N)ncnc76)[C@H](O)[C@@H]5O)[C@@H](O)[C@H]4O)nn3)ccc21` [TAMRA-ADPr]: the mP shift entry on SARS-CoV-2 Macro1 [7] is given as “over 110 mP”; at MacroD1 [8] it was “more than 100 mP”; on CHIKV Macro [9], about 70 mP; on VEEV Macro [10], about 70 mP; on human MacroD2 [11], “more than 100 mP”.
With `Nc1ncnc2c1ncn2[C@@H]1O[C@H](COP(=O)(O)OP(=O)(O)OC[C@H]2O[C@H](Oc3ccc4c(C(F)(F)F)cc(=O)oc4c3)[C@H](O)[C@@H]2O)[C@@H](O)[C@H]1O` [TFMU-ADPr, ADP-ribosylated trifluoromethyl umbelliferone], the IC50 is 90 ± 20 nM against human MacroD2 [5]; 10.9 ± 1.1 µM against PARP9 Macro2; 590 nM at SARS-CoV-2 Macro1 [4]; 37.6 ± 12.3 µM against CHIKV Macro [6]; 4.24 ± 0.36 µM against VEEV Macro [2]; 290 ± 20 nM on MacroD1 [3]. For the same compound, the “IC50 Fold Decrease Relative to ADPr: SARS Macro1” value on SARS-CoV-2 Macro1 [4] is 25 fold. Besides, the “MAR hydrolysis activity of SARS Macro1 in the presence of inhibitor” value at SARS Macro1 is given as “lowered MAR hydrolysis activity”. The “MAR hydrolysis activity of MacroD1 in the presence of inhibitor” value at MacroD1 [12] is given as “lowered MAR hydrolysis activity”.
For `Nc1ncnc2c1ncn2[C@@H]1O[C@H](COP(=O)(O)O)[C@@H](O)[C@H]1O[C@@H]1O[C@H](COP(=O)(O)O)[C@@H](O)[C@H]1O` [iso-ADPr], the “Competition with the tracer in macrodomain binding” value on human MacroD2 [5], on PARP9 Macro2, on SARS-CoV-2 Macro1 [4], at CHIKV Macro [6], on VEEV Macro [2] and on MacroD1 [3] was “did not compete” throughout.
Turning to `Nc1ncnc2c1ncn2[C@@H]1O[C@H](COP(=O)(O)OP(=O)(O)OC[C@H]2O[C@H](Oc3ccc([N+](=O)[O-])cc3)[C@H](O)[C@@H]2O)[C@@H](O)[C@H]1O` [pNP-ADPr, ADP-ribosylated p-nitrophenol], the IC50 turned out to be 150 ± 10 nM at human MacroD2 [5]; 4.5 ± 0.4 µM against PARP9 Macro2; 370 nM on SARS-CoV-2 Macro1 [4]; 22.8 ± 5.7 µM on CHIKV Macro [6]; 10.7 ± 0.9 µM on VEEV Macro [2]; 960 ± 70 nM against MacroD1 [3]. Further, at SARS-CoV-2 Macro1 [4], the “IC50 Fold Decrease Relative to ADPr: SARS Macro1” value was determined as 40 fold. For the same compound, the “MAR hydrolysis activity of SARS Macro1 in the presence of inhibitor” value on SARS Macro1 was “lowered MAR hydrolysis activity”. Also, the “MAR hydrolysis activity of MacroD1 in the presence of inhibitor” value on MacroD1 [12] is reported as “lowered MAR hydrolysis activity”.
